Experimental findings from US20230220387A1, “D-SERINE TRANSPORT MODIFIER AND SCREENING METHOD THEREOF, AND SCREENING METHOD OF D-SERINE TRANSPORTER PROTEIN” (Kagami Inc., priority 2019, published 2023) are described below.

Assay type in all cases: cell-based
For series [1], the system named is HEK293 cells transiently transfected with pCMV14-hSLC5A8-3×FLAG (SMCT1). As to the kind of experiment: D-serine toxicity test in transient expression system, SMCT1. The conditions noted are these: SMCT1-expressing HEK293 cells; 2 days; XTT. As to the method: (§1) 2-4. Cell survival measurement A D-serine toxicity test was carried out using HEK293 in a transient expression system. The cells were seeded in a 96-well plate at 10,000 cells/well, and transfected with […] DNA (pCMV14 as Mock, pCMV14-hSLC5A8-3×FLAG as SMCT1 and pCMV14-hSLC5A12-3×FLAG as SMCT2). At 24 hours after transfection they were treated with D-serine and further incubated for 2 days. The proliferated cell count was determined by XTT measurement. The XTT solution comprised 1 mg/ml of XTT (2,3-Bis-(2-Methoxy-4-nitro-5-sulfophenyl)-2H-tetrazolium-5-carboxanilide, disodium salt: Biotium, CA, USA) mixed with 7.5 μg/ml of Phenazine methosulfate (Nacalai Tesque, Inc.), and was added to the cultured cells. The incubation reaction was carried out for 4 hours at 37° C., 5% CO2. The absorbance at 450 nm was then measured with a microplate reader.
For orientation: Formazan colour is commonly taken as a measure of viable cells.

Series [2] deals with HEK293 cells transiently transfected with pCMV14-hSLC5A12-3×FLAG (SMCT2). Briefly: D-serine toxicity test in transient expression system, SMCT2. Conditions: SMCT2-expressing HEK293 cells; 2 days; XTT. As to the method:
as §1

For series [3], the system named is Flp-In TREx293 cells. As to the kind of experiment: Cell proliferation by XTT assay in Flp-In TREx293 cells treated with L- or D-serine. As to the method:
as §1
(§2) A toxicity test for stable cells was carried out using an FlpIn293TR-stable cell line. The cells were seeded in a poly-D-lysine-coated 96-well plate at 6.5×10^3 cells/well (Mock) and 8×10^3 cells/well (hSLC5A8 and hSLC5A12 cells), while in antibiotic-free DMEM+dialyzed FBS medium. After 24 hours, they were treated with L- or D-serine at different concentrations and 1 mg/L of doxycycline hyclate was added to induce recombination gene expression. For the ASCT2 knockdown experiment, the seeded cells were transfected after 12 hours with ASCT2 siRNA at 2 pmol/well, using Lipofectamine 3000. The effect of ibuprofen was analyzed by simultaneous addition with D-serine treatment. The cells were cultured for 2 days to 80% confluence. The proliferated cell count was determined by XTT measurement in the same manner as described above.

For series [4], the system named is HEK293 cells transiently transfected with a cDNA clone of a transporter candidate. As to the kind of experiment: Cytotoxicity test (XTT) for screening of D-serine transporter candidates. The protocol:
as §1
A total of 19 D-serine transporter candidates were selected from the proteome results. A cytotoxicity test for screening of D-serine transporter was developed based on the idea that intracellular D-serine accumulated via D-serine transporter function induces cytotoxicity. HEK293 cells were transiently transfected with a cDNA clone and the cells were treated with 15 mM or 25 mM D-serine to observe the initial stage and stationary stage of the toxicity effect. […]

The test system of series [5] is FlpIn293TR-hSLC5A12-3×FLAG (SMCT2)-stable cell line. As to the kind of experiment: Toxicity test (XTT) in SMCT2-stable cell line. The conditions noted are these: FlpIn293TR-Mock or SMCT2-stable cell line; SMCT2 cells compared to Mock cells. As to the method:
as §2

The test system of series [6] is FlpIn293TR-hSLC5A8-3×FLAG (SMCT1)-stable cell line. As to the kind of experiment: Toxicity test (XTT) in SMCT1-stable cell line. The conditions noted are these: SMCT1 cells compared to Mock cells. The protocol: as §2
In series [7] the test system is HEK293 cells. As to the kind of experiment: [3H]D-serine transport in HEK293 cells. Conditions: endogenous ASCT2. As to the method:
(§3) The cell lines HEK293 and Flp-In TREx 293 were cultured at 37° C. in a 5% CO2 environment, using Dulbecco's Modified Eagle Medium (DMEM) containing 10% fetal bovine serum (FBS), 100 units/ml Penicillin G and 100 μg/ml streptomycin (P/S). The cells were seeded in a Poly-D-lysine coated 24-well plate at 6×10^4 cells/well. After culturing for 3 days in DMEM Medium containing 10% FBS and P/S, the cell were used for transport activity measurement. Before transport activity measurement, the cells were washed with transport activity measurement buffer (PBS+1 g/L D-glucose) prewarmed to 37° C. and incubated for 10 minutes at 37° C. in 500 μL of buffer. The transport activity measurement was initiated by addition of D-[^3H]serine-containing transport activity buffer at the indicated concentration. The reaction product produced after addition was incubated at 37° C. for the indicated time. The reaction was suspended by removing the D-[^3H]serine-containing transport activity buffer, and the product was washed 3 times with thoroughly cooled transport activity buffer. The cells were dissolved with 500 μL of 0.1 N NaOH and incubated for at least one hour. Protein concentration of the cell lysate was measured by BCA protein assay. The lysate was mixed with 1 mL of Emulsifier Safe (PerkinElmer, MA, USA) and the radioactivity of the lysate was measured with a β-scintillation counter (LSC-8000, Hitachi). In transport activity measurement for Na^+, HBSS (+Na^+: 125 mM NaCl, −Na^+: choline chloride, 4.8 mM KCl, 1.2 mM MgSO4, 1.2 mM KH2PO4, 1.3 mM CaCl2), 5.6 mM D-glucose and 25 mM HEPES was used instead of PBS. For the inhibition experiment, a non-radioactive labeled compound was included as the uptake substrate as shown in the drawing.

Series [8] relates to Flp-In TREx 293 cell line. Briefly: D-[3H]serine uptake in Flp-In TREx 293 cell line in the presence of inhibitors. The conditions noted are these: 10 minutes. As to the method: as §3
For series [9], the target named is T1, ASCT2 (Homo sapiens, UniProt Q15758).
T1 construct: expressed in transfected cells; host or cells: HEK293 cells
T1 sequence (Q15758 1-541): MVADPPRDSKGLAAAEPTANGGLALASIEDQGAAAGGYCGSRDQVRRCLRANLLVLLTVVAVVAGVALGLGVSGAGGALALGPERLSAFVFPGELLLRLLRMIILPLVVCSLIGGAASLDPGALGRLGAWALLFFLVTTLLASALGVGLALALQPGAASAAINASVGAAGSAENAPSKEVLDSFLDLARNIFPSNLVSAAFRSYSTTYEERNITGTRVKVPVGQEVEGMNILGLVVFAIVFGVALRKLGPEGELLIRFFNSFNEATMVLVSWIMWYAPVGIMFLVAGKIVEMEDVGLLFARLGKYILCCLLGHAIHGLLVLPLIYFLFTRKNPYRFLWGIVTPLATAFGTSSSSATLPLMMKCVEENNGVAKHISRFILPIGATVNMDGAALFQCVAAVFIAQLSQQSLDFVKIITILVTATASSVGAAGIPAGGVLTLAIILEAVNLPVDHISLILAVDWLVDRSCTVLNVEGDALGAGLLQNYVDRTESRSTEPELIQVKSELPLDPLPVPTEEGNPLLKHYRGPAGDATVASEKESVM
As to the kind of experiment: [3H]D-serine transport in HEK293 cells transfected with ASCT2.
Experimental: The cell lines HEK293 and Flp-In TREx 293 were cultured at 37° C. in a 5% CO2 environment, using Dulbecco's Modified Eagle Medium (DMEM) containing 10% fetal bovine serum (FBS), 100 units/ml Penicillin G and 100 μg/ml streptomycin (P/S). The cells were seeded in a Poly-D-lysine coated 24-well plate at 6×10^4 cells/well. After culturing for 3 days in DMEM Medium containing 10% FBS and P/S, the cell were used for transport activity measurement. Before transport activity measurement, the cells were washed with transport activity measurement buffer (PBS+1 g/L D-glucose) prewarmed to 37° C. and incubated for 10 minutes at 37° C. in 500 μL of buffer. The transport activity measurement was initiated by addition of D-[^3H]serine-containing transport activity buffer at the indicated concentration. The reaction product produced after addition was incubated at 37° C. for the indicated time. The reaction was suspended by removing the D-[^3H]serine-containing transport activity buffer, and the product was washed 3 times with thoroughly cooled transport activity buffer. […] Protein concentration of the cell lysate was measured by BCA protein assay. The lysate was mixed with 1 mL of Emulsifier Safe (PerkinElmer, MA, USA) and the radioactivity of the lysate was measured with a β-scintillation counter (LSC-8000, Hitachi). […]

Series [10] concerns ASCT2-knockout HAP1 cells. Briefly: D-serine transport in ASCT2-knockout HAP1 cells. The text has this: In order to establish positive candidates for D-serine transporter it was attempted to elucidate the transport function in a cell model. ASCT2 is expressed in several cell lines, constituting a strong background of D-serine accumulation and interfering with identification of novel D-serine transporters. HAP1 cells (Horizon Discovery), which are an essentially haploid cell line, can be advantageously used as a cell model for this purpose. Genetic modification is facilitated since almost all of the chromosomes are single copies, while their transcriptome analysis methods have been established and several gene knockout cell lines can be used. ASCT2-knockout HAP1 cells were therefore obtained and used as a model for D-serine screening.
The ASCT2-knockout HAP1 cells had weaker D-serine uptake compared to wild type cells (FIG. 17(A)). However, D-serine transport background was still observed in the ASCT2-knockout HAP1 cells. Proteome analysis of the HAP1 cells (Table 2) was used to detect expression of both SNAT1 and SNAT2. SNAT1 and SNAT2 belong to the “system A family” of sodium-dependent small amino acid transporters. We considered that SNAT may contribute to D-serine transport in HAP1 cells. In order to verify this hypothesis, the inhibiting effect of the system A inhibitor MeAIB on D-serine transport was examined.

“Also recorded” adds a separate entry of the source.

As to `N[C@H](CO)C(=O)O` [D-serine], the “cytotoxicity compared to the Mock cells” value in [1] and in [2] was “higher cytotoxicity” throughout. The “D-serine toxicity with respect to cell proliferation” value in [3] (ASCT2 knockdown cells (ASCT2-siRNA) compared with control cells, 2 days, XTT) is “alleviated”. The EC50 in [3] (Flp-In-T-REx-293, 48 h, 2 days treatment, XTT assay, read-out: EC50 for cell proliferation reduction) came to 18.7 mM. Moreover, the “D-serine toxicity effect compared with Mock cells” value in series [4] (15 mM D-serine, cells transfected with SMCT2, CAT1, TAT1 and SNAT2, 2 days) was “increased toxicity”; in [4] (25 mM D-serine, cells transfected with GLUT5, SMCT1, SMCT2, CAT1, THTR2 and SNAT2, 2 days), “significant toxicity”. The “cell proliferation effect by serine treatment” value in series [5] is reported as “decrease in cell proliferation; also recorded: lowered proliferation more than in the Mock cells”. Further, the “cell proliferation effect by D-serine treatment” value in [6] is “lowered proliferation more than in the Mock cells”.

With `N[C@@H](CO)C(=O)O` [L-serine], the “[3H]D-serine transport” value was “inhibited” in series [7] and “notably inhibited” in [9]. Also, the cell proliferation result in [3] (Flp-In TREx 293 control cells, 2 days, XTT) is given as “no effect”. The “Uptake of D-[3H]serine” value in series [8] is reported as “inhibited”. The “cell proliferation effect by serine treatment” value in series [5] is “did not affect cell proliferation”.

On to `CNC(C)(C)C(=O)O` [MeAIB, α-Methylaminoisobutyric acid], for which, in [7], the “[3H]D-serine transport” value was “not inhibited”. Moreover, in series [10], the D-serine transport entry was “notably reduced”. The “Uptake of D-[3H]serine” value in [8] is reported as “not inhibited”.
